The supplement of paper PMC13380429

Experiments:
[1] = test system: A549-ACE2 infected with SARS-CoV-2; experiment: cell count relative to DMSO; higher = less toxic; details: 24 h
[2] = test system: Caco-2; experiment: relative viability EC50 (midpoint between 100% and the lowest measured viability); higher = less toxic; details: 72 h
[3] = test system: Vero E6; experiment: as above; details: 72 h
[4] = test system: U2OS; experiment: as above; details: 72 h
[5] = test system: Calu-3; experiment: as above; details: 72 h
[6] = test system: HepG2; experiment: drug sensitivity score (DSS) for viability; higher = more toxic; extreme values may be limits of the assay; details: 72 h
[7] = test system: Caco-2; experiment: as above; details: 72 h
[8] = test system: Vero E6; experiment: as above; details: 72 h
[9] = test system: U2OS; experiment: as above; details: 72 h
[10] = test system: Calu-3; experiment: as above; details: 72 h
[11] = test system: A549-ACE2 infected with SARS-CoV-2; experiment: SARS-CoV-2 infection rate relative to DMSO; higher = more infection; details: 24 h
[12] = test system: A549-ACE2; experiment: drug-induced phospholipidosis relative to tamoxifen; higher = more phospholipidosis
[13] = test system: A549-ACE2 infected with SARS-CoV-2; experiment: morphology score (similarity to uninfected cells); higher = more like uninfected cells; details: 24 h
[14] = test system: HepG2; experiment: cell viability relative to DMSO; higher = less toxic; details: 72 h
[15] = test system: Caco-2; experiment: as above; details: 72 h
[16] = test system: Vero E6; experiment: as above; details: 72 h
[17] = test system: U2OS; experiment: as above; details: 72 h
[18] = test system: Calu-3; experiment: as above; details: 72 h
[19] = test system: HepG2; experiment: relative viability EC50 (midpoint between 100% and the lowest measured viability); higher = less toxic; details: 72 h
[20] = test system: A549-ACE2; experiment: phospholipidosis EC50; higher = less potent phospholipidosis inducer; details: 24 h

Cc1ccc(CNc2ncnc3ccc(-c4ccc(CO)o4)cc23)o1 [ML167]
Details | SARS-CoV-2 infection rate, [11] [%] | cell count, [1] [%] | cell viability, [14] [%] | cell viability, [15] [%] | cell viability, [16] [%] | cell viability, [17] [%] | cell viability, [18] [%] | morphology score, [13]
1 nM | – | – | 94.8 | 106 | 104 | 102 | 102 | –
10 nM | – | – | 102 | 97.3 | 105 | 99.7 | 91.5 | –
100 nM | – | – | 99.2 | 110 | 95 | 106 | 98.1 | –
0.3 µM | 98 | 99 | – | – | – | – | – | 0.14
1000 nM | – | – | 93.5 | 84.8 | 96.5 | 97.7 | 85 | –
3 µM | 92 | 111 | – | – | – | – | – | 0.35
10 µM | 89 | 103 | – | – | – | – | – | 0.47
10000 nM | – | – | 70.5 | 93.6 | 89.1 | 99.9 | 83 | –
30 µM | 72 | 99 | – | – | – | – | – | 0.52

Details | drug sensitivity score | relative viability EC50 [µM]
[2] | – | > 10
[3] | – | > 10
[4] | – | > 10
[5] | – | > 10
[6] | 2.3 | –
[7] | 1.2 | –
[8] | 0 | –
[9] | 0 | –
[10] | 1.2 | –

drug-induced phospholipidosis [%], [12]
Details | 0.3 µM | 0.833333 µM | 3.33333 µM | 6.66667 µM | 10 µM | 30 µM
24 h | 2.53 | 0.81 | -3.37 | 5.92 | 6.99 | 19.4
48 h | 1.66 | -0.31 | -4.24 | 1.31 | 3.46 | 12.6
72 h | 1.51 | -4.06 | -1.11 | -0.124 | 2.4 | 14.2

Cc1ccccc1N(C)C(=O)c1ccc([S+]([O-])c2nccs2)c([N+](=O)[O-])c1 (centres undefined)
Details | SARS-CoV-2 infection rate, [11] [%] | cell count, [1] [%] | cell viability, [14] [%] | cell viability, [15] [%] | cell viability, [16] [%] | cell viability, [17] [%] | cell viability, [18] [%] | morphology score, [13]
1 nM | – | – | 106 | 96.9 | 103 | 98.5 | 102 | –
10 nM | – | – | 102 | 103 | 98.2 | 99.5 | 97.6 | –
0.1 µM | 101 | 99 | – | – | – | – | – | -0.04
100 nM | – | – | 95.1 | 98.5 | 100 | 95.6 | 102 | –
0.3 µM | 105 | 104 | – | – | – | – | – | 0.06
1 µM | 92 | 99 | – | – | – | – | – | 0.22
1000 nM | – | – | 89.5 | 82.8 | 88.1 | 41.7 | 103 | –
3 µM | 74 | 74 | – | – | – | – | – | 0.22
10000 nM | – | – | 0.2 | 0.2 | 0.1 | 0 | 2.3 | –

Details | drug sensitivity score | relative viability EC50 [µM]
[2] | – | 1.86
[3] | – | 2.19
[4] | – | 0.805
[5] | – | 3.36
[6] | 7.3 | –
[7] | 8.4 | –
[8] | 7.5 | –
[9] | 12.5 | –
[10] | 5.2 | –
[19] | – | 2.29

drug-induced phospholipidosis [%], [12]
Details | 24 h | 48 h | 72 h
0.3 µM | 6.61 | 5.74 | -1.4
0.833333 µM | 10.2 | 5.8 | -1.83

CCOC(=O)[C@H](CCc1ccccc1)N[C@@H](C)C(=O)N1[C@H](C(=O)O)C[C@H]2CCCC[C@@H]21 [trandolapril]
Details | drug sensitivity score | relative viability EC50 [µM]
[2] | – | > 10
[3] | – | > 10
[4] | – | > 10
[5] | – | > 10
[6] | 0 | –
[7] | 0.4 | –
[8] | 0 | –
[9] | 0 | –
[10] | 0 | –
[19] | – | > 10

cell viability [%]
Details | [14] | [15] | [16] | [17] | [18]
1 nM | 90.7 | 93.1 | 91.6 | 97.6 | 106
10 nM | 104 | 86 | 97.3 | 92.6 | 98
100 nM | 96.4 | 83.2 | 89.6 | 98.5 | 102
1000 nM | 100 | 89.6 | 96.1 | 96 | 108
10000 nM | 108 | 100 | 107 | 99.4 | 102

COc1cc(COc2cc(N)c(Cl)cc2C(=O)CCC2CCN(CCNS(C)(=O)=O)CC2)cc(OC)c1
Details | drug sensitivity score | phospholipidosis EC50 [µM] | relative viability EC50 [µM]
[2] | – | – | > 10
[3] | – | – | 2.74
[5] | – | – | > 10
[6] | 2.1 | – | –
[7] | 0 | – | –
[8] | 4.4 | – | –
[9] | 2 | – | –
[10] | 0 | – | –
[20] | – | 10.8 | –

Details | SARS-CoV-2 infection rate, [11] [%] | cell count, [1] [%] | cell viability, [14] [%] | cell viability, [15] [%] | cell viability, [16] [%] | cell viability, [17] [%] | cell viability, [18] [%] | morphology score, [13]
1 nM | – | – | 95 | 107 | 96.8 | 98.8 | 99 | –
10 nM | – | – | 102 | 102 | 97.8 | 96.2 | 106 | –
0.1 µM | 106 | 97 | – | – | – | – | – | -0.18
100 nM | – | – | 98.8 | 95.9 | 93.3 | 100 | 94.6 | –
0.3 µM | 102 | 102 | – | – | – | – | – | -0.13
1 µM | 93 | 105 | – | – | – | – | – | 0.08
1000 nM | – | – | 92.5 | 110 | 96.1 | 101 | 105 | –
3 µM | 69 | 118 | – | – | – | – | – | 0.56
10000 nM | – | – | 73.1 | 88.3 | 29.4 | 58.7 | 98.6 | –

drug-induced phospholipidosis [%], [12]
Details | 0.3 µM | 0.833333 µM | 3.33333 µM | 6.66667 µM | 10 µM | 30 µM
24 h | 7 | -3.07 | 1.58 | 15.2 | 28.5 | 59.3
48 h | 8.74 | 0.25 | 7.6 | 19.6 | 29.2 | –
72 h | 9.15 | 2.57 | 12.6 | 21.2 | 34.8 | –
